Target: T1, hROMK (hKir1.1) (Homo sapiens, UniProt P48048)
T1 construct: expressed in transfected cells
T1 sequence (P48048 1-391): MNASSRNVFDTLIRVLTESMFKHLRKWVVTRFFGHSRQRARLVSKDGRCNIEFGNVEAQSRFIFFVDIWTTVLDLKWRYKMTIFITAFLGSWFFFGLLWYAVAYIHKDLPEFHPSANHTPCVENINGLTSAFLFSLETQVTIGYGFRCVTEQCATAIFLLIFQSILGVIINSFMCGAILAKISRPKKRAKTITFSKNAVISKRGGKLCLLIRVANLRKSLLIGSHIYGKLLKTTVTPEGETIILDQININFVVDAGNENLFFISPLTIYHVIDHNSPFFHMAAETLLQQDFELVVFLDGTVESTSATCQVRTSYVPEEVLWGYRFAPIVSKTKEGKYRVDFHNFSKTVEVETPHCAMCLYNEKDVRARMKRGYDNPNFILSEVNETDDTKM
Experiment: Thallium Flux Assay (ROMK channel functional thallium flux, FLIPR-Tetra)
Format: cell-based
Conditions: HEK293 cells stably expressing hROMK (hKir1.1); 30 min compound incubation
Outline: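 HEK293 cells stably expressing hKir1.1, loaded with FluxOR dye for 90 min, then preincubated with compound for 30 min at ambient temperature with 0.3 mM ouabain and probenecid. Stimulated with 3 mM thallium/0.3 mM potassium (final); fluorescence read ~10 min. Normalized to 3 μM reference ROMK inhibitor; IC50 from inhibition of flux.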

| Structure (SMILES) | IC50 [nM] |
| --- | --- |
| CC1=C(N2CCC3(CCN(C(CO)Cc4ccc(-n5cnnn5)nc4)CC3)C2=O)COC1=O (single isomer, unassigned) [Example 295] | 20 |
| CC1=C(N2CCC3(CCN(C[C@H](O)c4nnc(-n5cnnn5)cc4C)CC3F)C2=O)COC1=O (single isomer, unassigned) [Example 185] | 50 |
| CC1=C(N2C(=O)C3(CCN(C[C@@H](O)c4ccc(-n5cnnn5)nc4C)CC3)CC2C)COC1=O (mixture of isomers) [Example 59, 8-{(2S)-2-hydroxy-2-[2-methyl-6-(1H-tetrazol-1-yl)pyridin-3-yl]ethyl}-3-methyl-2-(4-methyl-5-oxo-2,5-dihydrofuran-3-yl)-1-oxo-2-aza-8-azoniaspiro[4.5]decane] | 50 |
| CC1=C(N2CC(O)C3(CCN(C[C@H](O)c4ccc(-n5cnnn5)nc4)CC3)C2=O)COC1=O (single isomer, unassigned) [Example 111] | 90 |
| COC1CN(CCc2nnc(-n3cnnn3)cc2C)CCC12CCN(C1=C(C)C(=O)OC1)C2=O (single isomer, unassigned) [Example 260, 6-methoxy-2-(4-methyl-5-oxo-2,5-dihydrofuran-3-yl)-8-{2-[4-methyl-6-(1H-tetrazol-1-yl)pyridazin-3-yl]ethyl}-2,8-diazaspiro[4.5]decan-1-one] | 120 |
| CC1=CN(C2=C(C)C(=O)OC2)C(=O)C12CCN(CCc1nnc(-n3cnnn3)cc1C)CC2 [Example 256, 4-methyl-2-(4-methyl-5-oxo-2,5-dihydrofuran-3-yl)-8-{2-[4-methyl-6-(1H-tetrazol-1-yl)pyridazin-3-yl]ethyl}-1-oxo-2-aza-8-azoniaspiro[4.5]dec-3-ene] | 30 |
| CC1=C(N2CC(O)C3(CC4CCC(C3)N4C[C@H](O)c3ccc(-n4cnnn4)nc3)C2=O)COC1=O (single isomer, unassigned) [Example 104] | 120 |
| CC1=C(N2CCC3(CCN(C[C@H](F)c4ccc(-n5cnnn5)nn4)CC3)C2=O)COC1=O [Example 278, 8-{(2S)-2-fluoro-2-[6-(1H-tetrazol-1-yl)pyridazin-3-yl]ethyl}-2-(4-methyl-5-oxo-2,5-dihydrofuran-3-yl)-1-oxo-2-aza-8-azoniaspiro[4.5]decane] | 30 |
| CCC1CC2(CCN(C[C@H](O)c3cnc(-n4cnnn4)cn3)CC2)C(=O)N1C1=CC(=O)OC1 (mixture of isomers) [Example 220, 3-ethyl-8-{(2S)-2-hydroxy-2-[5-(1H-tetrazol-1-yl)pyrazin-2-yl]ethyl}-2-(5-oxo-2,5-dihydrofuran-3-yl)-2,8-diazaspiro[4.5]decan-1-one] | 40 |
| CC1=C(N2CCC3(CCN(CCc4nnc(-n5cnnn5)cc4C)CC3F)C2=O)COC1=O (single isomer, unassigned) [Example 267, 6-fluoro-2-(4-methyl-5-oxo-2,5-dihydrofuran-3-yl)-8-{2-[4-methyl-6-(1H-tetrazol-1-yl)pyridazin-3-yl]ethyl}-2,8-diazaspiro[4.5]decan-1-one] | 10 |
| COC1CN(CCc2ccc(-n3cnnn3)nn2)CCC12CCN(C1=C(C)C(=O)OC1)C2=O (single isomer, unassigned) [Example 257, 6-methoxy-2-(4-methyl-5-oxo-2,5-dihydrofuran-3-yl)-8-{2-[6-(1H-tetrazol-1-yl)pyridazin-3-yl]ethyl}-2,8-diazaspiro[4.5]decan-1-one] | 100 |
| CC1=CN(C2=C(C)C(=O)OC2)C(=O)C12CCN(C[C@H](O)c1ccc(-n3cnnn3)nc1)CC2 [Example 175, 8-{(2R)-2-hydroxy-2-[6-(1H-tetrazol-1-yl)pyridin-3-yl]ethyl}-4-methyl-2-(4-methyl-5-oxo-2,5-dihydrofuran-3-yl)-1-oxo-2-aza-8-azoniaspiro[4.5]dec-3-ene] | 40 |
| CC1=C(N2C=CC3(CCN(C[C@H](O)c4cnc(-n5cnnn5)cn4)CC3)C2=O)COC1=O [Example 163, 8-{(2S)-2-hydroxy-2-[5-(1H-tetrazol-1-yl)pyrazin-2-yl]ethyl}-2-(4-methyl-5-oxo-2,5-dihydrofuran-3-yl)-1-oxo-2-aza-8-azoniaspiro[4.5]dec-3-ene] | 100 |
| CC1=C(N2CCC3(CCN(C[C@@H](O)c4cnc(-n5cnnn5)c(F)c4)CC3)C2=O)COC1=O [Example 27, 8-{(2S)-2-[5-fluoro-6-(1H-tetrazol-1-yl)pyridin-3-yl]-2-hydroxyethyl}-2-(4-methyl-5-oxo-2,5-dihydrofuran-3-yl)-1-oxo-2-aza-8-azoniaspiro[4.5]decane] | 20 |
| CC1=CN(C2=C(C)C(=O)OC2)C(=O)C12CCN(C[C@H](O)c1ccc(-n3cnnn3)nn1)CC2 [Example 166, 8-{(2S)-2-hydroxy-2-[6-(1H-tetrazol-1-yl)pyridazin-3-yl]ethyl}-4-methyl-2-(4-methyl-5-oxo-2,5-dihydrofuran-3-yl)-1-oxo-2-aza-8-azoniaspiro[4.5]dec-3-ene] | 100 |
| CC1(O)CC2(CCN(C[C@H](O)c3ccc(-n4cnnn4)nc3)CC2)C(=O)N1C1=CC(=O)OC1 (stereo partly drawn) [Example 157, 3-hydroxy-8-{(2R)-2-hydroxy-2-[6-(1H-tetrazol-1-yl)pyridin-3-yl]ethyl}-3-methyl-1-oxo-2-(5-oxo-2,5-dihydrofuran-3-yl)-2-aza-8-azoniaspiro[4.5]decane] | 70 |
| CO[C@@H](CN1C2CCC1CC1(CCN(C3=C(C)C(=O)OC3)C1=O)C2)c1ccc(-n2cnnn2)nc1 (stereo partly drawn) [Example 288, (1R,3R,5S)-S-((R)-2-(6-(1H-tetrazol-1-yl)pyridin-3-yl)-2-methoxyethyl)-1′-(4-methyl-5-oxo-2,5-dihydrofuran-3-yl)-8-azaspiro[bicyclo[3.2.1]octane-3,3′-pyrrolidin]-2′-one] | 30 |
| CC1=C(N2CCC3(CCN(C[C@H](O)c4cnc(-n5cnnn5)nc4C)CC3)C2=O)COC1=O [Example 85, 8-{(2R)-2-hydroxy-2-[4-methyl-2-(1H-tetrazol-1-yl)pyrimidin-5-yl]ethyl}-2-(4-methyl-5-oxo-2,5-dihydrofuran-3-yl)-1-oxo-2-aza-8-azoniaspiro[4.5]decane] | 30 |
| O=C1C=C(N2CCC3(CCN(C[C@@H](O)c4ccc(-n5cnnn5)cc4F)CC3)C2=O)CO1 [Example 14, 8-{(2S)-2-[2-fluoro-4-(1H-tetrazol-1-yl)phenyl]-2-hydroxyethyl}-1-oxo-2-(5-oxo-2,5-dihydrofuran-3-yl)-2-aza-8-azoniaspiro[4.5]decane] | 20 |
| CC1=C(N2CCC3(CCN(C[C@H](O)c4ccc(-n5cnnn5)nc4C)CC3F)C2=O)COC1=O (single isomer, unassigned) [Example 117] | 50 |
| CC1=C(N2CCC3(CCN(C[C@@H](O)c4nnc(-n5cnnn5)cc4C)CC3)C2=O)COC1=O [Example 122, 8-{(2R)-2-hydroxy-2-[4-methyl-6-(1H-tetrazol-1-yl)pyridazin-3-yl]ethyl}-2-(4-methyl-5-oxo-2,5-dihydrofuran-3-yl)-1-oxo-2-aza-8-azoniaspiro[4.5]decane] | 10 |
| CC1=C(N2CCC3(CCN(C[C@@H](O)c4ncc(-n5cnnn5)cc4C)CC3)C2=O)COC1=O [Example 29, 8-{(2R)-2-hydroxy-2-[3-methyl-5-(1H-tetrazol-1-yl)pyridin-2-yl]ethyl}-2-(4-methyl-5-oxo-2,5-dihydrofuran-3-yl)-1-oxo-2-aza-8-azoniaspiro[4.5]decane] | 40 |
| CC1=C(N2C(=O)C3(CCN(CCc4ccc(-n5cnnn5)nn4)CC3)CC2C)COC1=O (racemic) [Example 240, 3-methyl-2-(4-methyl-5-oxo-2,5-dihydrofuran-3-yl)-1-oxo-8-{2-[6-(1H-tetrazol-1-yl)pyridazin-3-yl]ethyl}-2-aza-8-azoniaspiro[4.5]decane] | 30 |
| CC1=C(N2CC[C@@]3(CCN(C[C@H](O)c4cnc(-n5cnnn5)cn4)CC3F)C2=O)COC1=O (mixture of isomers) [Example 225, 6-fluoro-8-{(2S)-2-hydroxy-2-[5-(1H-tetrazol-1-yl)pyrazin-2-yl]ethyl}-2-(4-methyl-5-oxo-2,5-dihydrofuran-3-yl)-1-oxo-2-aza-8-azoniaspiro[4.5]decane] | 150 |
| CC1=C(N2CCC3(CCN(C[C@H](O)c4ccc(-n5cnnn5)c(C#N)c4)CC3)C2=O)COC1=O [Example 95, 8-{(2R)-2-[3-cyano-4-(1H-tetrazol-1-yl)phenyl]-2-hydroxyethyl}-2-(4-methyl-5-oxo-2,5-dihydrofuran-3-yl)-1-oxo-2-aza-8-azoniaspiro[4.5]decane] | 50 |
| CC1=C(N2CCC3(CC4CCC(C3)N4CCc3ccc(-n4cnnn4)nn3)C2=O)COC1=O [Example 235, (1S,5S)-1′-(4-methyl-5-oxo-2,5-dihydrofuran-3-yl)-2′-oxo-8-{2-[6-(1H-tetrazol-1-yl)pyridazin-3-yl]ethyl}spiro[8-azoniabicyclo[3.2.1]octane-3,3′-pyrrolidine]] | 10 |
| Cc1cc([C@@H](O)CN2CCC3(CC2)CCN(C2=CC(=O)OC2)C3=O)ncc1-n1cnnn1 [Example 7, 8-{(2S)-2-hydroxy-2-[4-methyl-5-(1H-tetrazol-1-yl)pyridin-2-yl]ethyl}-1-oxo-2-(5-oxo-2,5-dihydrofuran-3-yl)-2-aza-8-azoniaspiro[4.5]decane] | 80 |
| Cc1cc([C@H](O)CN2CCC3(CC2)CCN(C2=CC(=O)OC2)C3=O)ncc1-n1cnnn1 [Example 6, 8-{(2R)-2-hydroxy-2-[4-methyl-5-(1H-tetrazol-1-yl)pyridin-2-yl]ethyl}-1-oxo-2-(5-oxo-2,5-dihydrofuran-3-yl)-2-aza-8-azoniaspiro[4.5]decane] | 50 |

Source: patent publication US9765074B2, “Inhibitors of the renal outer medullary potassium channel” (Merck Sharp & Dohme Corp., priority 2013, dated 2017)
